Assay results as given in PubChem BioAssay (NCI).
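48-hour exposure; five concentrations; linearly interpolated endpoints. TGI is the concentration that stops growth completely.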

Tests used:
Assay in all cases: inhibition of tumour cell growth, NCI panel, 48 h
HCT-116 colon = system: HCT-116 colon
SK-MEL-28 melanoma = system: SK-MEL-28 melanoma
DU-145 prostate = system: DU-145 prostate
OVCAR-4 ovarian = system: OVCAR-4 ovarian
CCRF-CEM leukemia = system: CCRF-CEM leukemia
HS 578T breast = system: HS 578T breast
TK-10 renal = system: TK-10 renal
MOLT-4 leukemia = system: MOLT-4 leukemia
SK-MEL-2 melanoma = system: SK-MEL-2 melanoma
HCT-15 colon = system: HCT-15 colon
SNB-19 CNS = system: SNB-19 CNS
RXF 393 renal = system: RXF 393 renal
LOX IMVI melanoma = system: LOX IMVI melanoma
SNB-75 CNS = system: SNB-75 CNS
UACC-62 melanoma = system: UACC-62 melanoma
MDA-MB-231 breast = system: MDA-MB-231 breast
HOP-62 NSCLC = system: HOP-62 NSCLC
A549 NSCLC = system: A549 NSCLC
SF-295 CNS = system: SF-295 CNS
IGROV1 ovarian = system: IGROV1 ovarian
ACHN renal = system: ACHN renal
COLO 205 colon = system: COLO 205 colon
OVCAR-8 ovarian = system: OVCAR-8 ovarian
BT-549 breast = system: BT-549 breast
786-0 renal = system: 786-0 renal
UO-31 renal = system: UO-31 renal
CAKI-1 renal = system: CAKI-1 renal
SR leukemia = system: SR leukemia
K-562 leukemia = system: K-562 leukemia
NCI-H23 lung = system: NCI-H23 lung
SF-539 CNS = system: SF-539 CNS
NCI/ADR-RES ovarian = system: NCI/ADR-RES ovarian
HT29 colon = system: HT29 colon
PC-3 prostate = system: PC-3 prostate
UACC-257 melanoma = system: UACC-257 melanoma
A498 renal = system: A498 renal
U251 CNS = system: U251 CNS
OVCAR-3 ovarian = system: OVCAR-3 ovarian
SN12C renal = system: SN12C renal
SK-MEL-5 melanoma = system: SK-MEL-5 melanoma
SW-620 colon = system: SW-620 colon
KM12 colon = system: KM12 colon
MALME-3M melanoma = system: MALME-3M melanoma
M14 melanoma = system: M14 melanoma
SK-OV-3 ovarian = system: SK-OV-3 ovarian
RPMI-8226 leukemia = system: RPMI-8226 leukemia
NCI-H226 lung = system: NCI-H226 lung
EKVX NSCLC = system: EKVX NSCLC
SF-268 CNS = system: SF-268 CNS
MDA-MB-435 = system: MDA-MB-435
OVCAR-5 ovarian = system: OVCAR-5 ovarian
HCC-2998 colon = system: HCC-2998 colon
NCI-H460 lung = system: NCI-H460 lung
HL-60(TB) leukemia = system: HL-60(TB) leukemia
MCF7 breast = system: MCF7 breast
MDA-N = system: MDA-N
T-47D breast = system: T-47D breast
NCI-H522 lung = system: NCI-H522 lung
HOP-92 NSCLC = system: HOP-92 NSCLC

Measured: TGI

C[C@]12CCC3c4ccc(O)cc4CC[C@H]3C1CC(=O)N(CCN1CCCC1)C2=O (some centres undefined)
not listed: NCI-H522 lung | HOP-92 NSCLC
> 10 µM: all other assays above

CCOC1CN(C)C(=Nc2cccc3ccccc23)S1 (centres undefined)
not listed: SK-MEL-2 melanoma | RXF 393 renal | HL-60(TB) leukemia
> 10 µM: all other assays above

CN(CCNC(=O)c1[nH]nc2c1Cc1ccccc1-2)CCNC(=O)c1[nH]nc2c1Cc1ccccc1-2
44.3 µM: T-47D breast
34.7 µM: UO-31 renal
32.8 µM: HCT-116 colon
41.7 µM: OVCAR-8 ovarian
32.7 µM: HT29 colon
32.5 µM: ACHN renal
44.9 µM: MCF7 breast
39.3 µM: MDA-MB-231 breast
31.8 µM: IGROV1 ovarian | SN12C renal
31.3 µM: CAKI-1 renal
35.3 µM: MDA-MB-435
42.9 µM: CCRF-CEM leukemia | SR leukemia
33.6 µM: NCI-H23 lung | KM12 colon
31.9 µM: COLO 205 colon
34.3 µM: UACC-257 melanoma
61.9 µM: HS 578T breast
40.7 µM: HL-60(TB) leukemia
37.5 µM: UACC-62 melanoma
45.2 µM: MOLT-4 leukemia
34.6 µM: HOP-92 NSCLC
39.8 µM: A549 NSCLC
26.1 µM: SNB-75 CNS
41.3 µM: U251 CNS
49.4 µM: SW-620 colon
31.2 µM: MDA-N
33.2 µM: HCT-15 colon
30.8 µM: SK-MEL-5 melanoma
36.8 µM: A498 renal
35.2 µM: SK-MEL-28 melanoma
38.5 µM: LOX IMVI melanoma
33.4 µM: NCI-H522 lung
33.7 µM: TK-10 renal
30.6 µM: 786-0 renal
34.5 µM: MALME-3M melanoma
31.4 µM: SNB-19 CNS
35.8 µM: NCI-H226 lung
32 µM: DU-145 prostate
29.4 µM: HOP-62 NSCLC | HCC-2998 colon
33.5 µM: OVCAR-5 ovarian | NCI-H460 lung
39.6 µM: SF-268 CNS
35.7 µM: PC-3 prostate
31.1 µM: SK-OV-3 ovarian
38.1 µM: K-562 leukemia
> 100 µM: NCI/ADR-RES ovarian
31 µM: SF-295 CNS | BT-549 breast
34.4 µM: M14 melanoma
28.9 µM: OVCAR-3 ovarian
32.4 µM: OVCAR-4 ovarian
32.3 µM: RXF 393 renal
38.4 µM: EKVX NSCLC
